This is an account of results in patent US11939327B2, “Heterocyclic compounds” (Takeda Pharmaceutical Company Limited, priority 2017, dated 2024).

The first assay deals with T1, human GluR1 flip (Homo sapiens, UniProt P42261).
T1 construct: expressed in transfected cells; host or cells: CHO-K1
T1 sequence (P42261 19-906 isoform P42261-2 limits assumed): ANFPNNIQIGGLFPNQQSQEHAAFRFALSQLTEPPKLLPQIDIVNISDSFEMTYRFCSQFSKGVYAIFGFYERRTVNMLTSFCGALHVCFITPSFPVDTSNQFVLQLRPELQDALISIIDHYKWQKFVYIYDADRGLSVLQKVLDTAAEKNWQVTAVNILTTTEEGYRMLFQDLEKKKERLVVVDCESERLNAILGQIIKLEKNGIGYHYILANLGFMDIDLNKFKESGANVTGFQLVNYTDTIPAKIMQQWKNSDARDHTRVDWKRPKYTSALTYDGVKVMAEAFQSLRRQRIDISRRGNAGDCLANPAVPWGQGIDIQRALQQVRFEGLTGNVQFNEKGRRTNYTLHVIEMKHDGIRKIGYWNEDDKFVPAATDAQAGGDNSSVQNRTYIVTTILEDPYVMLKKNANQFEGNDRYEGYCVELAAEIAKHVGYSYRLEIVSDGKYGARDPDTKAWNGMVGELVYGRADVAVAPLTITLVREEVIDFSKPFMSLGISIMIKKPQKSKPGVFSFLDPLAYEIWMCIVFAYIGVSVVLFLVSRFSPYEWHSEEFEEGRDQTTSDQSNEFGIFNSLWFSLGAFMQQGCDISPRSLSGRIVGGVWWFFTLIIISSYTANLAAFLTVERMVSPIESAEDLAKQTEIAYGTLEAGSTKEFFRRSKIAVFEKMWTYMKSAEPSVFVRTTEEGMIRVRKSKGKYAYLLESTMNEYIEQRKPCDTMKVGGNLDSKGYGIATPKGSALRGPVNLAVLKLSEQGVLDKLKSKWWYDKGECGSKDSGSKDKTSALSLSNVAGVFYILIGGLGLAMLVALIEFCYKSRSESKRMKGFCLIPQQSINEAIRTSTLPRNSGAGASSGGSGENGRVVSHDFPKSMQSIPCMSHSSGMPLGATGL
T1 sequence (Q9Y698 whole entry partner): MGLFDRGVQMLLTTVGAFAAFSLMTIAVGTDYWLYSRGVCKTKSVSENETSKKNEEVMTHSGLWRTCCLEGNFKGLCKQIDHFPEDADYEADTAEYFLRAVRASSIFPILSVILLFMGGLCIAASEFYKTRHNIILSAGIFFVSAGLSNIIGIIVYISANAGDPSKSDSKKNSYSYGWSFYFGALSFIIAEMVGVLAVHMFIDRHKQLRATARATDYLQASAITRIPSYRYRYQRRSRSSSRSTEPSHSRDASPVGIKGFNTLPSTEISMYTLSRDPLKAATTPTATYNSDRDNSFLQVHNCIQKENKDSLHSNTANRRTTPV
As to the kind of experiment: AMPA receptor function-enhancing activity using calcium influx as index (CHO-K1/GluR1 flip/stargazin-expressing cells). It counts as cell-based. The note with it: CHO-K1, test compound 30 μM with 3 mM glutamic acid, 100% = 3 mM glutamic acid + 300 μM cyclothiazide, 0% = 3 mM glutamic acid alone, read-out: hGluR1 flip/30 μM (%). From the text: Experimental Example 1 Measurement method of AMPA receptor function-enhancing activity of compound using calcium influx as index
(1) Construction of Expression Gene
Human GluR1 flip cDNA was amplified by PCR method using forward primer […] (SEQ ID NO: 1) and reverse primer […] (SEQ ID NO: 2) artificially synthesized using human brain-derived cDNA (BD Bioscience) as a template. The amplified product was digested with restriction enzymes EcoRI, NotI (TAKARA SHUZO CO. LTD.) and incorporated into the same site of pcDNA3.1(+) (Invitrogen) to construct pcDNA3.1(+)/human GluR1 flip gene. Human stargazin cDNA was amplified by PCR method using forward primer […] (SEQ ID NO: 3) and reverse primer […] (SEQ ID NO: 4) artificially synthesized using human hippocampus cDNA as a template. The amplified product was digested with restriction enzymes XhoI, BamHI (TAKARA SHUZO CO. LTD.) and incorporated into the same site of pcDNA3.1(−) (Invitrogen) to construct pcDNA3.1 Zeo(−)/human stargazing gene.
(2) Construction of GluR1 Flip/Stargazin Expressing Cell
CHO-K1 cells passaged in a culture medium (Ham's F12 medium (Invitrogen) added with 10% inactivated fetal bovine serum (Morgate) and penicillin, streptomycin (Invitrogen)) were detached using 0.05% trypsin and 0.53 mM EDTA (Invitrogen) diluted with D-PBS(−). The detached cells were suspended in a culture medium, and recovered by centrifugation at 1,000 rpm. The recovered cells were re-suspended in D-PBS(−) and added into 0.4 cm electroporation cuvette (BioRad). pcDNA3.1(+)/human GluR1 flip gene (5 μg) and pcDNA3.1 Zeo(−)/human stargazin gene (15 μg) were added, and introduced into CHO-K1 cells under the conditions of 950 μFd, […] and using Gene Pulser II (BioRad). The introduced cells were cultured overnight in a culture medium. The next day, using a selection medium (culture medium added with zeocin (Invitrogen) at 250 μg/mL), the cells were plated in a 96 well plate at 250 cells/well. The clones showing drug resistance were selected, and GluR1 flip/stargazin expression clones were selected by an assay method shown below using calcium influx as an index.
(3) Measurement Method of AMPA Receptor Function-Enhancing Activity of Compound, Using Calcium Influx as an Index
CHO-K1/GluR1 flip/stargazin-expressing cells were plated on a 384 well black bottom transparent plate, and cultured for 2 days in a CO2 incubator (SANYO ELECTRIC Co. Ltd.) at 37° C. The medium of the cell plate was removed. A calcium indicator (Calcium5 Assay Kit, Molecular Devices) was diluted with an assay buffer (HBSS (Thermo Fisher Scientific), 0.1% BSA (Merck Millipoer) and 10 mM HEPES (Thermo Fisher Scientific)), and 1.25 mM probenecid (Dojindo Laboratories) was added thereto. The mixture prepared above was added at 30 μL/well (100 μL/well in case of 96 wells) to the well, and the well was left standing in 37° C., CO2 incubator for 1 hr. The cell plate was set in CellLux (PerkinElmer), a mixture (15 μL) (50 μL/well in case of 96 wells) of […] glutamic acid (final concentration 3 mM) diluted with an assay buffer and a test compound (test compound concentration 30 μM) was added thereto, and variation in the amount of fluorescence was measured for 3 min. The variation of fluorescence level of a well added with final concentration 3 mM of glutamic acid and 300 μM cyclothiazide (TOCRIS) was defined as 100%, the variation of fluorescence level of a well added with final concentration 3 mM of glutamic acid alone was defined as 0%, and the activity of the compound was calculated by the following formula. activity (%)=(X−C)/(T−C)×100 • T: variation of fluorescence level of well added with final concentration 3 mM of glutamic acid and 300 μM cyclothiazide • C: variation of fluorescence level of well added with final concentration 3 mM of glutamic acid alone • X: variation of fluorescence level of well added with test compound
For the compound `CN(CCC#N)C(=O)c1ccc(-c2cccc3c2nc(C(F)(F)F)n3CC(F)F)cc1` [Example 21, N-(2-cyanoethyl)-4-(1-(2,2-difluoroethyl)-2-(trifluoromethyl)-1H-benzimidazol-4-yl)-N-methylbenzamide], the activation at 30 µM was 93.7%.

With `O=C(c1ccc(-c2nccc3c2nc(C(F)(F)F)n3CC(F)F)cc1F)N1CCC1` [Example 24, azetidin-1-yl(4-(1-(2,2-difluoroethyl)-2-(trifluoromethyl)-1H-imidazo[4,5-c]pyridin-4-yl)-2-fluorophenyl)methanone], the activation at 30 µM turned out to be 78.1%.

`O=C(c1ccc(-c2nccc3c2nc(C(F)(F)F)n3CC(F)F)cc1F)N1CC(F)(F)C1` [Example 26, (3,3-difluoroazetidin-1-yl)(4-(1-(2,2-difluoroethyl)-2-(trifluoromethyl)-1H-imidazo[4,5-c]pyridin-4-yl)-2-fluorophenyl)methanone]: the activation at 30 µM worked out at 79.3%.

As to `CN(C(=O)c1ccc(-c2nccc3c2nc(C(F)(F)F)n3CC(F)F)cc1F)C1CCOCC1` [Example 28, 4-(1-(2,2-difluoroethyl)-2-(trifluoromethyl)-1H-imidazo[4,5-c]pyridin-4-yl)-2-fluoro-N-methyl-N-(tetrahydro-2H-pyran-4-yl)benzamide], the activation at 30 µM is 97.8%.

In the case of `O=C(c1ccc(-c2cccc3c2nc(C(F)(F)F)n3CC(F)F)cc1)N1CCOCC(F)(F)C1` [Example 29, (4-(1-(2,2-difluoroethyl)-2-(trifluoromethyl)-1H-benzimidazol-4-yl)phenyl)(6,6-difluoro-1,4-oxazepan-4-yl)methanone], the activation at 30 µM turned out to be 93%.

For the compound `O=C(c1ccc(-c2nccc3c2nc(C(F)(F)F)n3CC(F)F)cc1F)N1CCOCC(F)(F)C1` [Example 34, (4-(1-(2,2-difluoroethyl)-2-(trifluoromethyl)-1H-imidazo[4,5-c]pyridin-4-yl)-2-fluorophenyl)(6,6-difluoro-1,4-oxazepan-4-yl)methanone], the activation at 30 µM is 94.2%.

Take `O=C(c1ccc(-c2c(F)ccc3c2nc(C(F)(F)F)n3CC(F)F)cc1)N1CCOCC1` [Example 36, (4-(1-(2,2-difluoroethyl)-5-fluoro-2-(trifluoromethyl)-1H-benzimidazol-4-yl)phenyl)(morpholin-4-yl)methanone]: the activation at 30 µM is 93.5%.

Regarding `CO[C@@H]1CCN(C(=O)c2ccc(-c3nccc4c3nc(C(F)(F)F)n4CC(F)F)cc2F)C1` [Example 37, (4-(1-(2,2-difluoroethyl)-2-(trifluoromethyl)-1H-imidazo[4,5-c]pyridin-4-yl)-2-fluorophenyl)((3R)-3-methoxypyrrolidin-1-yl)methanone], the activation at 30 µM is 89.8%.

As for `Cc1cc2c(nc(C(F)(F)F)n2CC(F)F)c(-c2ccc(C(=O)N3CCOCC(F)(F)C3)c(F)c2)n1` [Example 38, (4-(1-(2,2-difluoroethyl)-6-methyl-2-(trifluoromethyl)-1H-imidazo[4,5-c]pyridin-4-yl)-2-fluorophenyl)(6,6-difluoro-1,4-oxazepan-4-yl)methanone], the activation at 30 µM worked out at 100%.

The same assay, now with this note: test compound 30 μM with 3 mM glutamic acid, 100% = 3 mM glutamic acid + 300 μM cyclothiazide, 0% = 3 mM glutamic acid alone.
As to `O=C(c1ccc(-c2cccc3c2nc(C(F)(F)F)n3CC(F)F)cc1)N1CCOC(C(F)F)C1` (stereo not drawn) [Example 22, (4-(1-(2,2-difluoroethyl)-2-(trifluoromethyl)-1H-benzimidazol-4-yl)phenyl)(2-(difluoromethyl)morpholin-4-yl)methanone], the “hGluR1 flip/30 μM (%)” value amounted to 105.5%.

In the case of `O=C(c1ccc(-c2cccc3c2nc(C(F)(F)F)n3CC(F)F)cc1)N1CCOC(C(F)F)C1` (stereo not drawn) [Example 23, (4-(1-(2,2-difluoroethyl)-2-(trifluoromethyl)-1H-benzimidazol-4-yl)phenyl)(2-(difluoromethyl)morpholin-4-yl)methanone], the “hGluR1 flip/30 μM (%)” value was 103%.

On to `CN(CCC#N)C(=O)c1ccc(-c2nccc3c2nc(C(F)(F)F)n3CC(F)F)cc1F` [Example 30, N-(2-cyanoethyl)-4-(1-(2,2-difluoroethyl)-2-(trifluoromethyl)-1H-imidazo[4,5-c]pyridin-4-yl)-2-fluoro-N-methylbenzamide], for which the “hGluR1 flip/30 μM (%)” value is 92.6%.
